The results in this text go back to patent US4888347A, “Use of specific N-methyl-D-aspartate receptor antagonists in the prevention and treatment of neurodegeneration” (Merck Sharp & Dohme Limited, priority 1986, dated 1989).

The subject of experiment [1] is NMDA responses of cortical neurons (NMDA receptor). Nature of the experiment: Rat cortical slice, responses to NMDA. The class given is cell-based. The following applies: read-out: Apparent Potency as NMDA Antagonist Kb. On the procedure: (§1) The effects of MK-801 and its analogs on responses to NMDA and quisqualate were assessed using the rat cortical slice as described by Harrison et al., Brit. J. Pharmacol, 84, 381-391 (1985). Cortical neurons in this preparation are depolarized by bath applications of NMDA. MK-801 produces a dose dependent depression of NMDA responses with a threshold dose of about 100 nM and complete suppression of responses at 1 μM.
The apparent potencies of MK-801 and its analogs are shown in Table IV; they correlate closely with results from [^3 H]-MK-801 binding studies.

For experiment [2], the target named is N-methyl-D-aspartate (NMDA) receptors ([3H]-MK-801 binding). Nature of the experiment: Displacement of [3H]-MK-801 binding, crude synaptosomal membrane fraction (P2) from rat cerebral cortex. The following applies: displacement of [3H]-MK-801, rat cerebral cortex membranes. How it is done: The compounds useful in the novel method of treatment of this invention bind with a high affinity and in a reversible and saturable manner to membranes from rat brain cortex. In addition these useful compounds potently and selectively block responses to NMDA in a brain slice from rate cortex, the antagonism apparently being non-competitive.
Binding of [^3 H]-MK-801 to rat brain in vitro was conducted in a crude synaptosomal membrane fraction (P2) prepared from rat cerebral cortex according to a modified method of Hulme et al, Molecular Pharmocology 14, 737-750 (1978).

Experiment [3] relates to gerbil hippocampus calcium levels. The experiment in a line: Prevention of increases in calcium levels in gerbil hippocampus following bilateral artery occlusion. The class given is in vivo. The source says: (d) The neuroprotective activity of compounds for use in accordance with the invention has also been determined by measuring the ability of the compounds to prevent increases in calcium levels in the gerbil hippocampus following bilateral artery occlusion.

Experiment [4] has as its system gerbils (neuronal degeneration in the hippocampus). Nature of the experiment: Gerbil ischaemia, 5 minute occlusion of both carotid arteries, neuronal degeneration in hippocampus. The class given is in vivo. How it is done:
(c) Ischaemia was induced in gerbils by 5 minute occlusion of both carotid arteries. Restoration of blood flow after occlusion was checked visually and the animals allowed to survive for 4 days. The extent of neuronal degeneration in the hippocampus was measured. Test animals were treated by administering MK-801 at doses of 1, 3 and 10 mg/kg (i.p.) one hour prior to occlusion.

The subject of experiment [5] is responses to quisqualate. Nature of the experiment: Rat cortical slice, responses to quisqualate. The class given is cell-based. To be noted: doses of up to 30 μM. On the procedure:
as §1

The subject of experiment [6] is gerbils (neuronal damage in the hippocampus). Nature of the experiment: Gerbil right carotid artery occlusion 10 minutes, repeated MK-801 dosing, neuronal damage in hippocampus. The class given is in vivo. To be noted: 1 mg/kg i.p. one hour before, then 1, 3, 5, 10 and 15 hours following 10 min occlusion. On the procedure:
(b) The right carotid artery of gerbils was occluded for 10 minutes and MK-801 at a dose of 1 mg/kg (i.p.) administered one hour before, then 1, 3, 5, 10 and 15 hours following occlusion. The animals were allowed to survive for 4 days and the extent of neuronal damage in the hippocampus was assessed.

A further experiment has as its system gerbils. The experiment in a line: Gerbil ischaemia, 30 minute unilateral carotid artery occlusion, survival. The following applies: 30 min occlusion. The class given is in vivo. On the procedure:
(§2) (a) Ischaemia was induced in gerbils by 10 or 30 minute unilateral occlusion of the carotid artery. Restoration of blood flow after occlusion was checked visually and the animals were allowed to survive for 4 days. The extent of neuronal degeneration in the hippocampus was assessed. Test animals were treated by administering MK-801 at doses of 1 and 10 mg/kg (i.p.) one hour prior to artery occulsion.

Experiment [7] relates to responses to quisqualate. Nature of the experiment: Cortical slices from rats pretreated with MK-801, responses to quisqualate. The class given is in vivo, rat. The following applies: slices from rats pretreated 1 mg/kg i.p. 2 hours before sacrifice. How it is done:
(§3) The responses to NMDA and quisqualate were examined on cortical slices from 4 rats which had been pretreated with MK-801 (1 mg/kg, i.p) 2 hours before they were sacrificed. Responses to NMDA were markedly depressed resulting in a shift to the right of the NMDA dose-response curve of approximately 2.4 fold when compared to the mean NMDA dose-response curved from untreated animals.

Experiment [8] relates to NMDA receptor mediated events on central neurons. Nature of the experiment: Cortical slices from rats pretreated with MK-801, responses to NMDA. The class given is in vivo, rat. The following applies: slices from rats pretreated 1 mg/kg i.p. 2 hours before sacrifice, vs untreated animals. How it is done: as §3
Experiment [9] has as its system gerbils (neuronal degeneration in the hippocampus). The experiment in a line: Gerbil ischaemia, 10 minute unilateral carotid artery occlusion, neuronal degeneration in hippocampus. The class given is in vivo. The following applies: 10 min occlusion. How it is done: as §2
Another experiment concerns responses to kainate. The experiment in a line: Rat cortical slice, responses to kainate. The class given is cell-based. The following applies: doses of up to 30 μM.
Setting [10] is: Table I, read-out: Displacement potencies Ki.
Where [11] appears, read: Table II, read-out: Displacement potencies Ki.

Where two headings read alike, the source gives them in different places.

Take `CCC12NC(Cc3ccccc31)c1ccccc12` [L-639,057]: the Kb (as a rule, the equilibrium dissociation constant of an antagonist, usually derived from a functional assay) in experiment [1] was 500 nM. The Ki (in general, the equilibrium dissociation constant of an inhibitor or competing ligand from its target) in experiment [2] (setting [10]) amounted to 50 nM.

Turning to `CN1C2(C)c3ccccc3C1(C)c1ccccc12` [L-627,891], the Kb in [1] came out at 1130 nM. Further, the Ki in [2] (Table III, read-out: Ki) worked out at 220 nM.

Consider `CN1C2(C)Cc3ccccc3C1(C)c1ccccc12` [L-640,688], for which the antagonist dissociation constant (Kb) in experiment [1] came out at 870 nM. Also, in [2] (setting [10]), the Ki came to 710 nM.

Take `CCCC12NC(Cc3ccccc31)c1ccccc12` [L-639,470]: in [1], the Kb was determined as 3000 nM. The inhibitory constant (Ki) in experiment [2] (setting [10]) came to 8600 nM.

For the molecule `CN1C2Cc3ccccc3C1c1ccccc12` [L-638,276], the Ki in [2] (setting [10]) came out at 11900 nM.

In the case of `CCCN1C2Cc3ccccc3C1(C)c1ccccc12` [L-645,156], the inhibition constant (Ki) in experiment [2] (setting [10]) is 450 nM.

`CC12NC(Cc3ccccc31)Cc1ccccc12` [L-638,204]: the Kb in [1] was 310 nM. Further, the Ki in experiment [2] (setting [11]) turned out to be 140 nM.

`CC12NC(Cc3cc(O)ccc31)c1ccccc12` [L-641,291]: the “Depression of Hippocampal [Ca^2+] Relative Potency (MK-801 = 1)” value in experiment [3] is 1. Further, in experiment [1], the Kb was 510 nM. In experiment [2] (setting [10]), the Ki is 340 nM.

Consider `CC12NC(Cc3ccccc31)c1ccc(Br)cc12` [L-639,442], for which the Kb in [1] turned out to be 400 nM. Besides, in experiment [2] (setting [10]), the Ki was 180 nM.

Regarding `CN1C2c3ccccc3C1(C)c1ccccc12` [L-631,876], the inhibition constant Ki in experiment [2] (Table III, read-out: Ki) amounted to 6930 nM.

For `CC12NC(Cc3ccccc31)c1ccccc12` [L-637,939], in experiment [1], the Kb stood at 90 nM. The inhibition constant Ki in experiment [2] (setting [10]) came out at 560 nM.

With `CC12NC(Cc3ccccc31)c1cc(O)ccc12` [L-641,285], in experiment [1], the Kb stood at 100 nM. Besides, the Ki in [2] (setting [10]) is 50 nM.

On to `CC12NC(Cc3ccccc31)c1ccc(O)cc12` [L-665,039], for which the “Depression of Hippocampal [Ca^2+] Relative Potency (MK-801 = 1)” value in experiment [3] is on record as 0.8. Moreover, the Kb in experiment [1] was 130 nM. In addition, in experiment [2] (setting [10]), the Ki amounted to 20 nM.

On to `CC12NC(Cc3ccc(Cl)cc31)c1ccccc12` [L-641,294], for which the Kb in experiment [1] amounted to 50 nM. In addition, in [2] (setting [10]), the Ki was found to be 10 nM.

Take `CN1C2(C)c3ccccc3C1(C)c1cc(C#N)ccc12` [L-633,239]: the Ki in experiment [2] (Table III, read-out: Ki) turned out to be 31300 nM.

Turning to `CC12c3ccccc3C(C)(c3ccccc31)N2C1CC1` [L-632,938], the antagonist equilibrium constant (Kb) in experiment [1] worked out at 640 nM. Besides, the inhibition constant (Ki) in experiment [2] (Table III, read-out: Ki) was 4000 nM.

For the molecule `CC12NC(Cc3ccccc31)c1ccccc12` (single isomer, unassigned) [L-640,689, 5-methyl-10,11-dihydro-5H-dibenzo[a,d]cyclohepten-5,10-imine], the “Percentage of animals with full protection” value in [4] (1 mg/kg i.p. one hour prior to 5 min bilateral occlusion) came out at 60; in experiment [4] (3 mg/kg i.p. one hour prior to 5 min bilateral occlusion) it was 80; in [4] (10 mg/kg i.p. one hour prior to 5 min bilateral occlusion) it was 70. In addition, in experiment [3] (Meriones unguiculatus, read-out: Depression of Hippocampal [Ca^2+] IC50), the ED50 was approximately 0.1 mg/kg. In addition, the “effect on responses to quisqualate” value is given as “totally unaffected” in the experiment on responses to quisqualate [5] and “much less affected with only the highest dose slightly depressed” with responses to quisqualate [7]. Moreover, the results for the “Number of animals showing damage” value in experiment [6], in experiment [9] (1 mg/kg i.p. one hour prior) and in experiment [9] (10 mg/kg i.p. one hour prior) were 1, 4 and 3, respectively. Also, the Number undamaged in [6] was determined as 8; in experiment [9] (1 mg/kg i.p. one hour prior) it was 11; in [9] (10 mg/kg i.p. one hour prior), 12. The results for the Number dead in the experiment on gerbils (1 mg/kg i.p. one hour prior) and with gerbils (10 mg/kg i.p. one hour prior) were 4 and 1, respectively. Further, the “Number of animals surviving” value in the experiment on gerbils (1 mg/kg i.p. one hour prior) is on record as 11; in the experiment on gerbils (10 mg/kg i.p. one hour prior), 14. For the same molecule, the “shift to the right of the NMDA dose-response curve” value in experiment [8] is given as “approximately 2.4 fold”. The Ki in experiment [2] (setting [10]) was 40 nM. In addition, the “effect on responses to kainate” value in the experiment on responses to kainate is recorded as “totally unaffected”.

For the molecule `OCCC12NC(Cc3ccccc31)c1ccccc12` [L-639,902], the antagonist dissociation constant (Kb) in experiment [1] came to 200 nM. Also, the Ki in experiment [2] (setting [10]) was 260 nM.

Take `CCCN1C2(C)c3ccccc3C1(C)c1ccccc12` [L-633,170]: the Kb in experiment [1] worked out at 300 nM. Besides, in experiment [2] (Table III, read-out: Ki), the Ki was 350 nM.

`CC12NC(Cc3ccccc31)c1ccccc12` (single isomer, unassigned) [L-640,690]: the Kb in [1] stood at 300 nM. The Ki in experiment [2] (setting [10]) is 320 nM.

Consider `CCCCN1C2(C)c3ccccc3C1(C)c1ccccc12` [L-633,744], for which the Kb in experiment [1] came to 470 nM. For the same molecule, the Ki in experiment [2] (Table III, read-out: Ki) worked out at 390 nM.

In the case of `COc1ccc2c(c1)C1Cc3ccccc3C2(C)N1` [L-641,086], in [2] (setting [10]), the Ki was 40 nM.

With `Clc1ccc2c(c1)C1NC(Cc3ccccc31)C2` [L-639,450], in experiment [2] (setting [11]), the Ki is 150 nM.

`CN1C2Cc3ccccc3C1(C)c1ccccc1C2` [L-637,686]: the Kb in experiment [1] turned out to be 2000 nM. In addition, in experiment [2] (setting [11]), the Ki was 1200 nM.

`CC12NC(Cc3ccccc31)c1ccc(Cl)cc12` [L-641,368]: the Kb in experiment [1] is 1000 nM. For the same molecule, the Ki in experiment [2] (setting [10]) amounted to 80 nM.

With `CN1C2(C)c3ccccc3C1(C)c1cc(C(F)(F)F)ccc12` [L-631,922], in experiment [2] (Table III, read-out: Ki), the Ki is 109000 nM.

With `CCC12NC(Cc3ccccc31)Cc1ccccc12` [L-639,420], the Kb in [1] is 200 nM. In experiment [2] (setting [11]), the inhibitory constant (Ki) amounted to 120 nM.

For the molecule `C=CCN1C2Cc3ccccc3C1(C)c1ccccc12` [L-639,015], in experiment [1], the Kb came out at 3100 nM. For the same molecule, the Ki in [2] (setting [10]) worked out at 3400 nM.

`CC12NC(Cc3ccc(Br)cc31)c1ccccc12` [L-639,441]: in experiment [1], the Kb was found to be 1000 nM. In addition, the Ki in [2] (setting [10]) worked out at 20 nM.

As for `CN1C2Cc3ccccc3C1(C)c1ccccc12` [L-638,275], the Ki in [2] (setting [10]) is 830 nM.

For the molecule `CC12c3ccccc3CC(c3ccccc31)N2CCO` [L-641,042], the inhibition constant Ki in experiment [2] (setting [10]) came to 12800 nM.

Regarding `CN1C2Cc3ccccc3C1(C)c1ccccc12` [L-645,114], the Ki in experiment [2] (setting [10]) was 509 nM.

Consider `COc1ccc2c(c1)CC1NC2(C)c2ccccc21` [L-641,074], for which, in [2] (setting [10]), the Ki stood at 605 nM.
